Experimental data reported in patent publication US9045493B2, “Furo[3,2-b]- and thieno[3,2-b]pyridin derivatives” (Merck Patent GmbH, priority 2012, dated 2015).

What was measured:
[1] = target: T1, TANK binding kinase (TBK1) (Homo sapiens, UniProt Q9UHD2); assay: TBK1 enzyme assay (384-well Flashplate kinase assay); assay type: biochemical; conditions: 10 μM ATP, 120 Min at 30° C.
T1 sequence (Q9UHD2 1-729): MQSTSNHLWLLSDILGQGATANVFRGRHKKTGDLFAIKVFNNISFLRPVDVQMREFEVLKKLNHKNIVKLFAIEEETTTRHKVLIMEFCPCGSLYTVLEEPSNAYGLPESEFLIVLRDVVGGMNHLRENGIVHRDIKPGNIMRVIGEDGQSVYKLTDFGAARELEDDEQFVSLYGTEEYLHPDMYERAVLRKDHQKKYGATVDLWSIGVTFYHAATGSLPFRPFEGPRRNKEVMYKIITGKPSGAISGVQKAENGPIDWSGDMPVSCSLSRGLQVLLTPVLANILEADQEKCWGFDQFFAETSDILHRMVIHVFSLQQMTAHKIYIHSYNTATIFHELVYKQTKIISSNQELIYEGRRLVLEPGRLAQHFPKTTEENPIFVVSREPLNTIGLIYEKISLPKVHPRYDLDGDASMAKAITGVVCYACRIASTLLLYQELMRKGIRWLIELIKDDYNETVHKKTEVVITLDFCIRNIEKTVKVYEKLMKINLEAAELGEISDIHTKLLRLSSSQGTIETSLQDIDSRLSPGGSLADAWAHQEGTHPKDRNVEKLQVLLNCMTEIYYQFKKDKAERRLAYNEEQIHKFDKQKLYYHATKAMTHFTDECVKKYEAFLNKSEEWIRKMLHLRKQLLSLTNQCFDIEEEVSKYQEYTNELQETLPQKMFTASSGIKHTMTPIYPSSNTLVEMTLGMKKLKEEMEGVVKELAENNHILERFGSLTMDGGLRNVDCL
Method: The kinase assay is performed as 384-well Flashplate assay (for e.g. Topcount measurement.
0.6 nM TANK binding kinase (TBK1), 800 nM biotinylated MELK-derived peptide (Biotin-Ah-Ah-[…]) and 10 μM ATP (spiked with 0.25 μCi ^33P-ATP/well) are incubated in a total volume of 50 μl (10 mM MOPS, 10 mM Mg-acetat, 0.1 mM EGTA, 1 mM DTT, 0.02% Brij35, 0.1% BSA, pH 7.5) with or without test compound for 120 Min at 30° C. The reaction is stopped with 25 μl 200 mM EDTA. After 30 Min at room temperature the liquid is removed and each well washed thrice with 100 μl 0.9% sodium chloride solution. Nonspecific reaction is determined in presence of 100 nM Staurosporine. Radioactivity is measured in a Topcount (PerkinElmer). Results (e.g. IC50-values) are calculated with program tools provided by the IT-department (e.g. AssayExplorer, Symyx).

[2] = target: T2, IKKε (Homo sapiens, UniProt Q14164); assay: IKKε kinase assay (384-well Flashplate); assay type: biochemical; conditions: 10 μM ATP, 2 hours at 30° C.; read-out: IKKε enzyme assay IC50
T2 sequence (Q14164 1-716): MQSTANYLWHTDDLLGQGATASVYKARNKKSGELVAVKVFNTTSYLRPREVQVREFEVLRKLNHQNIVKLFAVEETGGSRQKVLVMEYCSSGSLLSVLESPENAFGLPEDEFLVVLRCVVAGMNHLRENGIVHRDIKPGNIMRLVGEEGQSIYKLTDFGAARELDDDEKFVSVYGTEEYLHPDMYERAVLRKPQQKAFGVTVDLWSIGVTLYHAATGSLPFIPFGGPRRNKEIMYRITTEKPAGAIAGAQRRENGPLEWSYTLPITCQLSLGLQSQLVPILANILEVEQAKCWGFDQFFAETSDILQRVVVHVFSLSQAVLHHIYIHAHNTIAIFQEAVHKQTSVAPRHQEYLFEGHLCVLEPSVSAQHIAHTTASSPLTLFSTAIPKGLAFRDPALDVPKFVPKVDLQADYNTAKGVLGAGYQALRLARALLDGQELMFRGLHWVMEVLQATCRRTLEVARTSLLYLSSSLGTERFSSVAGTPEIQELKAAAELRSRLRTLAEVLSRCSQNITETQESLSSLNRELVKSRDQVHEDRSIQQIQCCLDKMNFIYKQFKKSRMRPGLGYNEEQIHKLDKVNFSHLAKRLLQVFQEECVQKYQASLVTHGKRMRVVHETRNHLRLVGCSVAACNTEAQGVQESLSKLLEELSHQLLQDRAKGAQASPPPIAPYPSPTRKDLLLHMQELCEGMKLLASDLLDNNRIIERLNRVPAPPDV
Method: The kinase assay is performed either as 384-well Flashplate assay (for e.g. Topcount measurement).
1 nM IKKε, 800 nM biotinylated IκBα(19-42) peptide (Biotin-C6-C6-[…]) and 10 μM ATP (spiked with 0.3 μCi ^33P-ATP/well) are incubated in a total volume of 50 μl (10 mM MOPS, 10 mM Mg-acetat, 0.1 mM EGTA, 1 mM Dithiothreitol, 0.02% Brij35, 0.1% BSA, 0.1% BioStab, pH 7.5) with or without test compound for 2 hours at 30° C. The reaction is stopped with 25 μl 200 mM EDTA. After 30 Min at room temperature the liquid is removed and each well washed thrice with 100 μl 0.9% sodium chloride solution. […] Radioactivity is measured with Topcount (PerkinElmer). Results (e.g. IC50-values) are calculated with program tools provided by the IT-department (e.g. AssayExplorer, Symyx).

CN1CCN(C(=O)c2ccc(-c3cc4nccc(-c5ccc(OC6CCOCC6)c(C#N)c5)c4s3)cc2)CC1 [Compound A45]
IC50 [1]: < 300 nM | IC50 [2]: < 300 nM

Cc1occc1-c1cc2nccc(-c3ccc(OC4CCOCC4)c(C#N)c3)c2o1 [Compound A55]
IC50 [1]: 300 to 3000 nM | IC50 [2]: < 300 nM

COc1cc(-c2cc3nccc(-c4ccc(OC5CCOCC5)c(C#N)c4)c3o2)ccc1C(=O)NCC(N)=O [Compound A93]
IC50 [1]: < 300 nM | IC50 [2]: < 300 nM

CN(CCO)C(=O)c1ccc(-c2cc3nccc(-c4ccc(OC5CCOC5)c(C#N)c4)c3o2)cc1 (centres unmarked) [Compound A63]
IC50 [1]: < 300 nM | IC50 [2]: < 300 nM

CCN(CCOC)C(=O)c1ccc(-c2cc3nccc(-c4ccc(OC5CCOCC5)c(C#N)c4)c3o2)cc1 [Compound A3, 4-{7-[3-cyano-4-(tetrahydro-pyran-4-yloxy)-phenyl]-furo[3,2-b]pyridin-2-yl}-N-ethyl-N-(2-methoxy-ethyl)-benzamide]
IC50 [1]: < 300 nM | IC50 [2]: < 300 nM

N#Cc1cc(-c2ccnc3cc(-c4ccc(C(=O)N5CCNCC5)cc4)oc23)ccc1OC1CCOC1 (centres unmarked) [Compound A43]
IC50 [1]: < 300 nM | IC50 [2]: < 300 nM

COc1cc(-c2cc3nccc(-c4ccc(OC5CCOCC5)c(C#N)c4)c3o2)ccc1C(=O)N1CCOCC1 [Compound A104]
IC50 [1]: < 300 nM | IC50 [2]: < 300 nM

COCCN(C)C(=O)c1ccc(-c2cc3nccc(-c4ccc(OC5CCOCC5)c(C#N)c4)c3o2)cc1 [Compound A26, 4-{7-[3-cyano-4-(tetrahydro-pyran-4-yloxy)-phenyl]-furo[3,2-b]pyridin-2-yl}-N-(2-methoxy-ethyl)-N-methyl-benzamide]
IC50 [1]: < 300 nM | IC50 [2]: < 300 nM

N#Cc1cc(-c2ccnc3cc(-c4ccc(C(=O)NCCC(F)(F)F)cc4)oc23)ccc1OC1CCOCC1 [Compound A85]
IC50 [1]: 300 to 3000 nM | IC50 [2]: 300 to 3000 nM

CC(CO)(CO)COc1ccc(-c2ccnc3cc(-c4ccc(C(=O)N5CCNCC5)cc4)oc23)cc1C#N [Compound A60]
IC50 [1]: 300 to 3000 nM | IC50 [2]: < 300 nM

N#Cc1cc(-c2ccnc3cc(-c4ccc(C(=O)N5CCNCC5)cc4)oc23)ccc1OCC1CC1 [Compound A40]
IC50 [1]: < 300 nM | IC50 [2]: < 300 nM

N#Cc1cc(-c2ccnc3cc(-c4cnn(C5CCN(CCO)CC5)c4)sc23)ccc1OC1CCOCC1 [Compound A97]
IC50 [1]: < 300 nM | IC50 [2]: < 300 nM

N#Cc1cc(-c2ccnc3cc(-c4ccc5cn[nH]c5c4)oc23)ccc1OC1CCOCC1 [Compound A71]
IC50 [1]: 300 to 3000 nM | IC50 [2]: < 300 nM

CCNC(=O)c1ccc(-c2cc3nccc(-c4ccc(OC5CCOCC5)c(C#N)c4)c3o2)cc1 [Compound A20, 4-{7-[3-cyano-4-(tetrahydro-pyran-4-yloxy)-phenyl]-furo[3,2-b]pyridin-2-yl}-N-ethyl-benzamide]
IC50 [1]: 300 to 3000 nM | IC50 [2]: 300 to 3000 nM

COCCn1cc(-c2cc3nccc(-c4ccc(OC5CCOCC5)c(C#N)c4)c3s2)cn1 [Compound A119]
IC50 [1]: < 300 nM | IC50 [2]: < 300 nM

CCN(CCN(C)C)C(=O)c1ccc(-c2cc3nccc(-c4ccc(OC5CCOCC5)c(C#N)c4)c3s2)cc1OC [Compound A51]
IC50 [1]: < 300 nM | IC50 [2]: < 300 nM

CC(C)(C)OCCNC(=O)c1ccc(-c2cc3nccc(-c4ccc(OC5CCOCC5)c(C#N)c4)c3o2)cc1 [Compound A21, N-(2-tert-butoxy-ethyl)-4-{7-[3-cyano-4-(tetrahydro-pyran-4-yloxy)-phenyl]-furo[3,2-b]pyridin-2-yl}-benzamide]
IC50 [1]: 300 to 3000 nM | IC50 [2]: 300 to 3000 nM

CN(CCO)C(=O)c1ccc(-c2cc3nccc(-c4ccc(OCC5(C)COC5)c(C#N)c4)c3o2)cc1 [Compound A62]
IC50 [1]: < 300 nM | IC50 [2]: < 300 nM

N#Cc1cc(-c2ccnc3cc(-c4cnn(CCN5CCOCC5)c4)oc23)ccc1OC1CCOCC1 [Compound A48]
IC50 [1]: < 300 nM | IC50 [2]: < 300 nM

COc1cc(-c2cc3nccc(-c4ccc(OC5CCOCC5)c(C#N)c4)c3o2)ccc1C(=O)N1CCNC(=O)CC1 [Compound A91]
IC50 [1]: < 300 nM | IC50 [2]: < 300 nM

COc1cc(-c2cc3nccc(-c4ccc(OC5CCOCC5)c(C#N)c4)c3o2)ccc1C(=O)N1CC[C@H](O)C1 [Compound A92]
IC50 [1]: < 300 nM | IC50 [2]: < 300 nM

COc1cc(-c2cc3nccc(-c4ccc(OC5CCOCC5)c(C#N)c4)c3o2)ccc1C(=O)N1CC[C@@H](O)C1 [Compound A98]
IC50 [1]: < 300 nM | IC50 [2]: < 300 nM

N#Cc1cc(-c2ccnc3cc(-c4ccc(C(=O)NCCO)cc4)oc23)ccc1OC1CCOCC1 [Compound A33, 4-{7-[3-cyano-4-(tetrahydro-pyran-4-yloxy)-phenyl]-furo[3,2-b]pyridin-2-yl}-N-(2-hydroxy-ethyl)-benzamide]
IC50 [1]: < 300 nM | IC50 [2]: < 300 nM

N#Cc1cc(-c2ccnc3cc(-c4ccc(C(=O)N5CCC(O)CC5)cc4F)oc23)ccc1OC1CCOCC1 [Compound A113]
IC50 [1]: < 300 nM | IC50 [2]: < 300 nM

N#Cc1cc(-c2ccnc3cc(-c4ccc(C(=O)N5CCNCC5)cc4F)oc23)ccc1OC1CCOCC1 [Compound A111]
IC50 [1]: < 300 nM | IC50 [2]: < 300 nM

N#Cc1cc(-c2ccnc3cc(-c4ccc(C(=O)NCCc5cccnc5)cc4)oc23)ccc1OC1CCOCC1 [Compound A81]
IC50 [1]: 300 to 3000 nM | IC50 [2]: < 300 nM

CN(CCO)C(=O)c1ccc(-c2cc3nccc(-c4ccc(OCC5CC5)c(C#N)c4)c3o2)cc1 [Compound A41]
IC50 [1]: < 300 nM | IC50 [2]: < 300 nM

N#Cc1cc(-c2ccnc3cc(-c4ccc(N5CCOCC5)nc4)oc23)ccc1OC1CCOCC1 [Compound A56]
IC50 [1]: < 300 nM | IC50 [2]: < 300 nM

CN(C)CCN(C)C(=O)c1ccc(-c2cc3nccc(-c4ccc(OC5CCOCC5)c(C#N)c4)c3o2)cc1 [Compound A28, 4-{7-[3-cyano-4-(tetrahydro-pyran-4-yloxy)-phenyl]-furo[3,2-b]pyridin-2-yl}-N-(2-dimethylamino-ethyl)-N-methyl-benzamide]
IC50 [1]: < 300 nM | IC50 [2]: < 300 nM

CN1CCN(C(=O)c2ccc(-c3cc4nccc(-c5ccc(OC6CCOCC6)c(C#N)c5)c4o3)cc2)CC1 [Compound A17, 5-{2-[4-(4-Methyl-piperazine-1-carbonyl)-phenyl]-furo[3,2-b]pyridin-7-yl}-2-(tetrahydro-pyran-4-yloxy)-benzonitrile]
IC50 [1]: < 300 nM | IC50 [2]: < 300 nM

CNCCNC(=O)c1ccc(-c2cc3nccc(-c4ccc(OC5CCOCC5)c(C#N)c4)c3o2)cc1 [Compound A15, 4-{7-[3-cyano-4-(tetrahydro-pyran-4-yloxy)-phenyl]-furo[3,2-b]pyridin-2-yl}-N-(2-methylamino-ethyl)-benzamide]
IC50 [1]: 300 to 3000 nM | IC50 [2]: < 300 nM
